Data on 24 compounds can be found in publication PMC5785997, “2-Phenylquinazolinones as dual-activity tankyrase-kinase inhibitors” (Scientific Reports, 2018).

The IC50 is the concentration needed to halve the response being measured.

What all share (format): biochemical
For test [1], the target named is TNKS2 (Homo sapiens, UniProt Q9H2K2). Description: NAD+ quantification activity assay, TNKS2. Here is the method: The activity assay used to measure the potency of the compounds against TNKS2 is based on the quantification of NAD^+[38]. The reactions were carried out in 96-well plate (Greiner bio-one, U-shaped) and the conditions were the same as reported earlier (Table S5)[24].
TNKS2, sequence (Q9H2K2 959-1164): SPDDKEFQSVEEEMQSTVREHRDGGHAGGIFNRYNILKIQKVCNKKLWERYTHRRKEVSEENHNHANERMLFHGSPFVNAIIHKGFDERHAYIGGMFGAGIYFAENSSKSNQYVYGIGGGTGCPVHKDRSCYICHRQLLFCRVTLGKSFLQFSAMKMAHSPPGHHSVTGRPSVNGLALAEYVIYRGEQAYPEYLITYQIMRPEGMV
The compounds were stored in 100% DMSO at −20 °C. All the compounds were diluted in the TNKS2 assay buffer (50 mM Bis-Tris Propane, 0.5 mM TCEP, 0.01% Triton-100x). Control reactions were used to exclude the effect of compound fluorescence and quenching from the calculations. […] The pIC50 values were calculated and fitted with nonlinear regression using 4-parameters with GraphPad Prism (version 5.0 for windows).
Protein (nM) NAD+ (nM) Incubation Buffer
Kinase [ATP] Substrate Incubation Reaction buffer

For test [2], the target named is CDK9 (Homo sapiens, UniProt P50750). Description: Kinase functional assay (mobility shift), CDK9.
CDK9, sequence (P50750 whole entry, species assumed): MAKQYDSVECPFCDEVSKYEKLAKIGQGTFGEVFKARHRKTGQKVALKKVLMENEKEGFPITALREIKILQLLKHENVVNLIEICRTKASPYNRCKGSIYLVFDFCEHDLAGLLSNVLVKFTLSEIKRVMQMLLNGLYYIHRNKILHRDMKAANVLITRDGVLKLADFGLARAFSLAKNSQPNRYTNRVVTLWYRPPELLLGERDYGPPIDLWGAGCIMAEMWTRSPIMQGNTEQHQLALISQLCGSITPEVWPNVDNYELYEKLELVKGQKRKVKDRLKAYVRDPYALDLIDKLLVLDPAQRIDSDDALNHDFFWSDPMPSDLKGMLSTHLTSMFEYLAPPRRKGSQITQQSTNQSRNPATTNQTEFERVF
CDK9, sequence (O60563 whole entry partner, species assumed): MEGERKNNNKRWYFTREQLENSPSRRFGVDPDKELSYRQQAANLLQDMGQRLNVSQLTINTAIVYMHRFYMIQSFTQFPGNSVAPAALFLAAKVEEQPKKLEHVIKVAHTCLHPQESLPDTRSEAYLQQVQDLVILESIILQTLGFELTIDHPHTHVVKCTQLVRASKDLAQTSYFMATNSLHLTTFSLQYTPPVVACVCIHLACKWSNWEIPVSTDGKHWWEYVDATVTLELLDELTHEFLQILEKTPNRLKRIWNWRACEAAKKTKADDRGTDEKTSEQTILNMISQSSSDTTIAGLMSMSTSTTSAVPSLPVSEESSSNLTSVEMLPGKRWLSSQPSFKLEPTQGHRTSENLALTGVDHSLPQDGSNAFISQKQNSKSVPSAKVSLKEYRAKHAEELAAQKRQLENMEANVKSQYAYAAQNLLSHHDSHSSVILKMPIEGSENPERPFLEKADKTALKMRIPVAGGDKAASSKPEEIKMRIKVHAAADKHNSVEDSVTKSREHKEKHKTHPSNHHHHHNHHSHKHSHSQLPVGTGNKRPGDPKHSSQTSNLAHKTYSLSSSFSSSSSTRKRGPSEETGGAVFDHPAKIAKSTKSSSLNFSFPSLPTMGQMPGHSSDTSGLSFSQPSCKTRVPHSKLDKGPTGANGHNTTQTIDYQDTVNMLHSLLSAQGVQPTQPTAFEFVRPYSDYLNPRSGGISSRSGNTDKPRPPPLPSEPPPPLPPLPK
Test [3] concerns the target Akt. Description: Kinase functional assay (mobility shift), Akt. To be noted: dose response.
[4] abbreviates: Table 1, read-out: TNKS2 IC50 (shown for comparison).
Setting [5] is: dose response, read-out: CDK9 IC50.
Where [6] appears, read: compound does not completely inhibit the enzyme at concentrations used, IC50 extrapolated by the analysis software, read-out: CDK9 IC50 (extrapolated).

Where two headings read alike, the source gives them in different places.

`C[C@]1(c2ccc(-c3nc4ccccc4c(=O)[nH]3)cc2)NC(=O)NC1=O` [(+)-8] displayed an IC50 in test [1] (TNKS2 IC50, NAD+ 500 nM) of 0.0067 µM.
As to `CN(CCO)c1ccc(-c2nc3cc(Cl)ccc3c(=O)[nH]2)cc1` [C00004], the IC50 is 0.66 µM in test [1] (setting [4]) and 6.2 µM in test [2] (setting [5]).
In the case of `CN(CCO)c1ccc(-c2nc3ccccc3c(=O)[nH]2)cc1` [C00005], the 50% inhibitory concentration (IC50) is 0.016 µM in test [1] (setting [4]), 16.1 µM in test [2] (setting [6]) and 13.3 µM in test [3].
For the compound `Nc1ccc(-c2nc3ccccc3c(=O)[nH]2)cc1` [C00007], the values for the IC50 in test [2] (setting [6]) and in test [3] were 28.3 µM and 13.8 µM, respectively.
As to `O=c1[nH]c(-c2ccccn2)nc2ccccc12` [Compound 11], the IC50 in test [1] (TNKS2 IC50, as quoted in text) is 2.4 µM.
In turn, `Nc1ccccc1-c1nc2ccccc2c(=O)[nH]1` [Compound 14] returned an IC50 in test [1] (TNKS2 IC50, NAD+ 500 nM) of 0.7 µM.
`COc1ccccc1-c1nc(O)c2ccccc2n1` [Compound 18] displayed an IC50 in test [1] (TNKS2 IC50, NAD+ 500 nM) of 10 µM.
Regarding `O=c1[nH]c(-c2cccc3cnccc23)nc2ccccc12` [Compound 19], the IC50 in test [1] (TNKS2 IC50, NAD+ 500 nM) worked out at 42.3 µM.
`O=c1[nH]c(-c2cnc[nH]2)nc2ccccc12` [Compound 21] had an IC50 in test [1] (TNKS2 IC50, NAD+ 500 nM) of 6.53 µM.
As to `COCCN1CC(=O)C(c2nc3ccccc3c(=O)[nH]2)=C1N` [Compound 22], half-maximal inhibition in test [1] (TNKS2 IC50, NAD+ 500 nM) (IC50) required 92 µM.
On to `COc1ccc(-c2nc3ccccc3c(=O)[nH]2)c(Cl)c1O` [Compound 23], for which the IC50 in test [1] (TNKS2 IC50, NAD+ 500 nM) is 25.5 µM.
Take `O=c1[nH]c(-c2ccc(O)c(O)c2O)nc2ccccc12` [Compound 24]: half-maximal inhibition in test [1] (TNKS2 IC50, NAD+ 500 nM) (IC50) was put at 0.44 µM.
On to `O=c1[nH]c(-c2ccccc2Cl)nc2ccccc12` [Compound 25], for which half-maximal inhibition in test [1] (TNKS2 IC50, NAD+ 500 nM) (IC50) was put at 243 µM.
`Oc1nc(-c2ccccc2F)nc2ccccc12` [Compound 26] gave a half-maximal inhibitory concentration (IC50) in test [1] (TNKS2 IC50, NAD+ 500 nM) of 4.77 µM.
As for `O=c1[nH]c(-c2ccc(-c3ccccn3)cc2)nc2ccccc12` [Compound 29], the IC50 in test [1] (TNKS2 IC50, NAD+ 500 nM) came to 0.016 µM.
`O=c1[nH]c(-c2ccc(N3CCOCC3)cc2)nc2ccccc12` [Compound 31] showed a half-inhibitory concentration (IC50) in test [1] (TNKS2 IC50, NAD+ 500 nM) of 0.017 µM.
`CC(C)Oc1ccc(-c2nc3ccccc3c(=O)[nH]2)cc1` [Compound 34]: the half-maximal inhibitory concentration (IC50) in test [1] (TNKS2 IC50, NAD+ 500 nM) came out at 0.012 µM.
`CCOc1ccc(-c2nc3ccccc3c(=O)[nH]2)cc1` [Compound 35] had an IC50 in test [1] (TNKS2 IC50, NAD+ 500 nM) of 0.035 µM.
The same measure, in the same setting: the result for `CCCOc1ccc(-c2nc3ccccc3c(=O)[nH]2)cc1` [Compound 36] reads 0.022 µM; that for `CC(C)CCOc1ccc(-c2nc3ccccc3c(=O)[nH]2)cc1` [Compound 37], 0.046 µM; that for `O=C(O)c1ccc2c(=O)[nH]c(-c3ccc(Cl)cc3)nc2c1` [Compound 38], 30.1 µM.
Regarding `O=C(O)c1ccc2c(=O)[nH]c(-c3cccc(C(F)(F)F)c3)nc2c1` [Compound 39], inhibition in test [1] (TNKS2 IC50, NAD+ 500 nM) was half-maximal at 542 µM (IC50).
In test [1] (TNKS2 IC50, NAD+ 500 nM), `COc1ccc(-c2nc3cc(Cl)ccc3c(=O)[nH]2)cc1` [Compound 40] had a half-maximal inhibitory concentration (IC50) of 2.46 µM.
On to `CN(CCO)c1ccc(-c2nc3cc(Cl)ccc3c(=O)[nH]2)cc1` [Compound 41], for which the IC50 in test [1] (TNKS2 IC50, NAD+ 500 nM) is 0.66 µM; in test [2] (setting [5]), 6.2 µM; in test [3] it was 14.7 µM.
